Values of other authors as cited in patent US12539323B2, “Anti-psychotic composition and treatment methods” (priority 2017, dated 2026).

Tested on: symptoms of schizophrenia
Settings: pooled meta-analysis of celecoxib and aspirin, eight studies

Which results are given for `CC(=O)Oc1ccccc1C(=O)O` [aspirin]?
Effect on negative symptoms of schizophrenia: no benefit; Hedges' g, positive symptoms: −0.189; Hedges' g, total symptoms (trend level): −0.236
